Laboratory results reported in the NIST ThermoML archive (doi:10.1016/j.jct.2017.07.004).
Numbers after ± are expanded uncertainties.

Test: xn = mol fraction of the nth substance listed
Conditions: 100 kPa, Liquid; for viscosity: Concentric cylinders viscometry; for mass density: Vibrating tube method

CCC=O [propanal] + CCC(C)O
Conditions | mass density [kg/m3] | viscosity [mPa·s]
293.15 K, x1 = 0.0811 | 810.5 ± 1 | 3.49 ± 0.28
293.15 K, x1 = 0.16 | 813.1 ± 1 | 3.29 ± 0.26
293.15 K, x1 = 0.24 | 815.1 ± 1 | 3.06 ± 0.25
293.15 K, x1 = 0.35 | 817 ± 1 | 2.72 ± 0.22
293.15 K, x1 = 0.44 | 817.8 ± 1 | 2.42 ± 0.19
293.15 K, x1 = 0.56 | 817.7 ± 1 | 2 ± 0.16
293.15 K, x1 = 0.6499 | 816.7 ± 1 | 1.67 ± 0.13
293.15 K, x1 = 0.7401 | 814.7 ± 1 | 1.34 ± 0.11
293.15 K, x1 = 0.8501 | 810.8 ± 1 | 0.92 ± 0.07
293.15 K, x1 = 0.9401 | 806.5 ± 1 | 0.58 ± 0.05
293.15 K, x1 = 1 | 802.4 ± 1 | 0.34 ± 0.03
298.15 K, x1 = 0.0811 | 806 ± 1 | 2.89 ± 0.23
298.15 K, x1 = 0.16 | 808.4 ± 1 | 2.73 ± 0.22
298.15 K, x1 = 0.24 | 810.3 ± 1 | 2.55 ± 0.2
298.15 K, x1 = 0.35 | 811.8 ± 1 | 2.27 ± 0.18
298.15 K, x1 = 0.44 | 812.3 ± 1 | 2.03 ± 0.16
298.15 K, x1 = 0.56 | 811.8 ± 1 | 1.68 ± 0.14
298.15 K, x1 = 0.6499 | 810.5 ± 1 | 1.41 ± 0.11
298.15 K, x1 = 0.7401 | 808.4 ± 1 | 1.14 ± 0.09
298.15 K, x1 = 0.8501 | 804.5 ± 1 | 0.8 ± 0.06
298.15 K, x1 = 0.9401 | 800 ± 1 | 0.52 ± 0.04
298.15 K, x1 = 1 | 796.2 ± 1 | 0.33 ± 0.03
303.15 K, x1 = 0.0811 | 801.1 ± 1 | 2.41 ± 0.19
303.15 K, x1 = 0.16 | 803.2 ± 1 | 2.27 ± 0.18
303.15 K, x1 = 0.24 | 804.8 ± 1 | 2.12 ± 0.17
303.15 K, x1 = 0.35 | 806 ± 1 | 1.89 ± 0.15
303.15 K, x1 = 0.44 | 806.5 ± 1 | 1.69 ± 0.14
303.15 K, x1 = 0.56 | 805.7 ± 1 | 1.41 ± 0.11
303.15 K, x1 = 0.6499 | 804.3 ± 1 | 1.19 ± 0.1
303.15 K, x1 = 0.7401 | 802 ± 1 | 0.97 ± 0.08
303.15 K, x1 = 0.8501 | 798 ± 1 | 0.69 ± 0.06
303.15 K, x1 = 0.9401 | 794 ± 1 | 0.46 ± 0.04
303.15 K, x1 = 1 | 790.3 ± 1 | 0.31 ± 0.03
308.15 K, x1 = 0.0811 | 796.4 ± 1 | 2.02 ± 0.16
308.15 K, x1 = 0.16 | 798 ± 1 | 1.9 ± 0.15
308.15 K, x1 = 0.24 | 799.4 ± 1 | 1.77 ± 0.14
308.15 K, x1 = 0.35 | 800.3 ± 1 | 1.58 ± 0.13
308.15 K, x1 = 0.44 | 800.4 ± 1 | 1.41 ± 0.11
308.15 K, x1 = 0.56 | 799.5 ± 1 | 1.18 ± 0.1
308.15 K, x1 = 0.6499 | 798.1 ± 1 | 1.01 ± 0.08
308.15 K, x1 = 0.7401 | 795.9 ± 1 | 0.82 ± 0.07
308.15 K, x1 = 0.8501 | 791.8 ± 1 | 0.6 ± 0.05
308.15 K, x1 = 0.9401 | 788 ± 1 | 0.42 ± 0.03
308.15 K, x1 = 1 | 784.5 ± 1 | 0.3 ± 0.03
313.15 K, x1 = 0.0811 | 791.7 ± 1 | 1.71 ± 0.14
313.15 K, x1 = 0.16 | 793 ± 1 | 1.61 ± 0.13
313.15 K, x1 = 0.24 | 794 ± 1 | 1.5 ± 0.1
313.15 K, x1 = 0.35 | 794.6 ± 1 | 1.34 ± 0.11
313.15 K, x1 = 0.44 | 794.6 ± 1 | 1.2 ± 0.1
313.15 K, x1 = 0.56 | 793.5 ± 1 | 1.01 ± 0.08
313.15 K, x1 = 0.6499 | 792 ± 1 | 0.86 ± 0.07
313.15 K, x1 = 0.7401 | 789.8 ± 1 | 0.72 ± 0.06
313.15 K, x1 = 0.8501 | 786 ± 1 | 0.53 ± 0.04
313.15 K, x1 = 0.9401 | 782.4 ± 1 | 0.38 ± 0.03
313.15 K, x1 = 1 | 779 ± 1 | 0.28 ± 0.02
318.15 K, x1 = 0.0811 | 786.8 ± 1 | 1.45 ± 0.12
318.15 K, x1 = 0.16 | 787.9 ± 1 | 1.36 ± 0.11
318.15 K, x1 = 0.24 | 788.6 ± 1 | 1.27 ± 0.1
318.15 K, x1 = 0.35 | 789.1 ± 1 | 1.13 ± 0.09
318.15 K, x1 = 0.44 | 788.8 ± 1 | 1.02 ± 0.08
318.15 K, x1 = 0.56 | 787.6 ± 1 | 0.86 ± 0.07
318.15 K, x1 = 0.6499 | 786.1 ± 1 | 0.74 ± 0.06
318.15 K, x1 = 0.7401 | 783.8 ± 1 | 0.62 ± 0.05
318.15 K, x1 = 0.8501 | 780 ± 1 | 0.47 ± 0.04
318.15 K, x1 = 0.9401 | 776.5 ± 1 | 0.35 ± 0.03
318.15 K, x1 = 1 | 773.5 ± 1 | 0.27 ± 0.02
323.15 K, x1 = 0.0811 | 781.9 ± 1 | 1.25 ± 0.1
323.15 K, x1 = 0.16 | 782.6 ± 1 | 1.17 ± 0.09
323.15 K, x1 = 0.24 | 783.1 ± 1 | 1.09 ± 0.09
323.15 K, x1 = 0.35 | 783.2 ± 1 | 0.97 ± 0.08
323.15 K, x1 = 0.44 | 782.8 ± 1 | 0.87 ± 0.07
323.15 K, x1 = 0.56 | 781.5 ± 1 | 0.74 ± 0.06
323.15 K, x1 = 0.6499 | 779.8 ± 1 | 0.64 ± 0.05
323.15 K, x1 = 0.7401 | 777.7 ± 1 | 0.54 ± 0.04
323.15 K, x1 = 0.8501 | 774.3 ± 1 | 0.42 ± 0.03
323.15 K, x1 = 0.9401 | 770.9 ± 1 | 0.32 ± 0.03
323.15 K, x1 = 1 | 768.2 ± 1 | 0.25 ± 0.02
